Test results reported in US20190374627A1, “TARGET PEPTIDES FOR CANCER THERAPY AND DIAGNOSTICS” (priority 2016, published 2019).
Square brackets hold non-standard residues; d marks the D form. Ends that are not written are not given here. Met(O) = CS(=O)CC[C@H](N)C(=O)O; pS = N[C@@H](COP(=O)(O)O)C(=O)O

What was measured:
CD8^+ T cells (PBMCs) = experiment: Intracellular cytokine staining (ICS) of PBMCs after 7 days of stimulation with MHC-I-pP (healthy donors, HH patients); format: cell-based, human; conditions: for Reactive CD8^+ T cell population, HH2: HH patient HH2; for Reactive CD8^+ T cell population, HH3: HH patient HH3; for Reactive CD8^+ T cell population, HH6: HH patient HH6; for Reactive CD8^+ T cell population, HH8: HH patient HH8; for Reactive CD8^+ T cell population, HH11: HH patient HH11; for Reactive CD8^+ T cell population, HD1: Healthy donor HD1; for Reactive CD8^+ T cell population, HD4: Healthy donor HD4; for Reactive CD8^+ T cell population, HD5: Healthy donor HD5; for Reactive CD8^+ T cell population, HH10: HH patient HH10; for Reactive CD8^+ T cell population, HD2: Healthy donor HD2; for Reactive CD8^+ T cell population, HD3: Healthy donor HD3
In short: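 PBMCs or liver lymphocytes from HLA-A*0201-positive healthy donors and hereditary hemochromatosis patients were stimulated for 7 days with HLA-A*0201-restricted phosphopeptides and no added cytokines. After exclusion of doublets and dead cells with a fixable viability dye, CD3^+CD8^+ cells were analysed by intracellular staining for IFN-γ and TNF-α, plus CD107a where needed.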

[1] = tested on: expanded TIL / IHL cultures; experiment: ICS for MHC-I-pP reactivity of liver-derived lymphocyte cultures after unspecific rapid expansion protocol (REP); format: cell-based, human
[2] = tested on: expanded lymphocyte cultures from deceased donor livers, cirrhotic livers and HCC; experiment: ICS for MHC-I-pP reactivity of liver-derived lymphocyte cultures after phosphopeptide-specific expansion; format: cell-based, human; conditions: for ppCTL response, Deceased Donor Liver Do 2 / ppCTL response, Deceased Donor Liver Do 3 / ppCTL response, Deceased Donor Liver Do 4 / ppCTL response, Deceased Donor Liver Do 6 / ppCTL response, End-stage Liver Cirrhosis IHL 11 / ppCTL response, End-stage Liver Cirrhosis IHL 12 / ppCTL response, End-stage Liver Cirrhosis IHL 13 / ppCTL response, End-stage Liver Cirrhosis IHL 15 / ppCTL response, HCC Distal HCC 1 / ppCTL response, HCC Tumor HCC 1 / ppCTL response, HCC Distal HCC 4 / ppCTL response, HCC Distal HCC 9 / ppCTL response, HCC Tumor HCC 9 / ppCTL response, HCC Distal HCC 12: pP-specifically expanded culture; for ppCTL response, HCC Distal HCC 1: HCC 1 Distal; for ppCTL response, HCC Tumor HCC 1: HCC 1 Tumor; for ppCTL response, HCC Distal HCC 4: HCC 4 Distal; for ppCTL response, HCC Distal HCC 9: HCC 9 Distal; for ppCTL response, HCC Tumor HCC 9: HCC 9 Tumor; for ppCTL response, HCC Distal HCC 12: HCC 12 Distal
[3] = tested on: unexpanded lymphocyte cultures (CD8^+ T cells); experiment: ICS for MHC-I-pP reactivity of lymphocyte cultures without expansion (Table 23, No Expansion)

RTFsPTYGL: SYNM phosphopeptide, HLA-A*0201 (RTF[pS]PTYGL; listed as Homo sapiens)
1 (0.25-2.5% reactive CD8^-+ T cells): Reactive CD8^+ T cells, No Expansion, HH6 [3]
0 (<0.25% reactive CD8^-+ T cells): Reactive CD8^+ T cell population, HH2 (CD8^+ T cells (PBMCs)) | Reactive CD8^+ T cell population, HH3 (CD8^+ T cells (PBMCs)) | Reactive CD8^+ T cell population, HH6 (CD8^+ T cells (PBMCs)) | Reactive CD8^+ T cell population, HH8 (CD8^+ T cells (PBMCs)) | Reactive CD8^+ T cell population, HH11 (CD8^+ T cells (PBMCs)) | Reactive CD8^+ T cell population, HD1 (CD8^+ T cells (PBMCs)) | Reactive CD8^+ T cell population, HD4 (CD8^+ T cells (PBMCs)) | Reactive CD8^+ T cell population, HD5 (CD8^+ T cells (PBMCs)) | Reactive CD8^+ T cells, Non-specific Expansion, Do2 [1] | Reactive CD8^+ T cells, Non-specific Expansion, Do4 [1] | Reactive CD8^+ T cells, Non-specific Expansion, HH6 [1] | Reactive CD8^+ T cells, pP-specific Expansion, Do2 [2] | Reactive CD8^+ T cells, pP-specific Expansion, Do4 [2]
0 (<0.25% reactive CD8-+ T cells): ppCTL response, Deceased Donor Liver Do 2 [2] | ppCTL response, Deceased Donor Liver Do 3 [2] | ppCTL response, Deceased Donor Liver Do 4 [2] | ppCTL response, Deceased Donor Liver Do 6 [2] | ppCTL response, End-stage Liver Cirrhosis IHL 11 [2] | ppCTL response, End-stage Liver Cirrhosis IHL 12 [2] | ppCTL response, End-stage Liver Cirrhosis IHL 13 [2] | ppCTL response, HCC Distal HCC 1 [2] | ppCTL response, HCC Tumor HCC 1 [2] | ppCTL response, HCC Distal HCC 4 [2] | ppCTL response, HCC Distal HCC 9 [2] | ppCTL response, HCC Tumor HCC 9 [2] | ppCTL response, HCC Distal HCC 12 [2]
1 (0.25-2.5% reactive CD8-+ T cells): ppCTL response, End-stage Liver Cirrhosis IHL 15 [2]
3 (5-7.5% reactive CD8^-+ T cells): Reactive CD8^+ T cells, pP-specific Expansion, HH6 [2]

RTHsLLLLL (RTH[pS]LLLLL; listed as Homo sapiens)
0 (<0.25% reactive CD8^-+ T cells): Reactive CD8^+ T cell population, HH2 (CD8^+ T cells (PBMCs)) | Reactive CD8^+ T cell population, HH3 (CD8^+ T cells (PBMCs)) | Reactive CD8^+ T cell population, HH6 (CD8^+ T cells (PBMCs)) | Reactive CD8^+ T cell population, HH8 (CD8^+ T cells (PBMCs)) | Reactive CD8^+ T cell population, HH10 (CD8^+ T cells (PBMCs)) | Reactive CD8^+ T cell population, HH11 (CD8^+ T cells (PBMCs)) | Reactive CD8^+ T cell population, HD1 (CD8^+ T cells (PBMCs)) | Reactive CD8^+ T cell population, HD2 (CD8^+ T cells (PBMCs)) | Reactive CD8^+ T cell population, HD3 (CD8^+ T cells (PBMCs)) | Reactive CD8^+ T cell population, HD4 (CD8^+ T cells (PBMCs)) | Reactive CD8^+ T cell population, HD5 (CD8^+ T cells (PBMCs)) | Reactive CD8^+ T cells, Non-specific Expansion, Do2 [1] | Reactive CD8^+ T cells, Non-specific Expansion, Do4 [1] | Reactive CD8^+ T cells, pP-specific Expansion, Do2 [2] | Reactive CD8^+ T cells, pP-specific Expansion, Do4 [2] | Reactive CD8^+ T cells, pP-specific Expansion, HH6 [2]
0 (<0.25% reactive CD8-+ T cells): ppCTL response, Deceased Donor Liver Do 2 [2] | ppCTL response, Deceased Donor Liver Do 3 [2] | ppCTL response, Deceased Donor Liver Do 4 [2] | ppCTL response, Deceased Donor Liver Do 6 [2] | ppCTL response, End-stage Liver Cirrhosis IHL 11 [2] | ppCTL response, End-stage Liver Cirrhosis IHL 12 [2] | ppCTL response, End-stage Liver Cirrhosis IHL 13 [2] | ppCTL response, End-stage Liver Cirrhosis IHL 15 [2] | ppCTL response, HCC Distal HCC 1 [2] | ppCTL response, HCC Tumor HCC 1 [2] | ppCTL response, HCC Distal HCC 4 [2] | ppCTL response, HCC Distal HCC 9 [2] | ppCTL response, HCC Tumor HCC 9 [2] | ppCTL response, HCC Distal HCC 12 [2]
1 (0.25-2.5% reactive CD8^-+ T cells): Reactive CD8^+ T cells, Non-specific Expansion, HH6 [1] | Reactive CD8^+ T cells, No Expansion, HH6 [3]
2 (2.5-5.0% reactive CD8^-+ T cells): Reactive CD8^+ T cells, No Expansion, Do4 [3]

SImsPEIQL: CIC phosphopeptide, HLA-A*0201 (SI[Met(O)][pS]PEIQL; listed as Homo sapiens)
0 (<0.25% reactive CD8-+ T cells): ppCTL response, Deceased Donor Liver Do 2 [2] | ppCTL response, Deceased Donor Liver Do 3 [2] | ppCTL response, Deceased Donor Liver Do 4 [2] | ppCTL response, Deceased Donor Liver Do 6 [2] | ppCTL response, End-stage Liver Cirrhosis IHL 11 [2] | ppCTL response, End-stage Liver Cirrhosis IHL 12 [2] | ppCTL response, End-stage Liver Cirrhosis IHL 13 [2] | ppCTL response, End-stage Liver Cirrhosis IHL 15 [2] | ppCTL response, HCC Distal HCC 1 [2] | ppCTL response, HCC Tumor HCC 1 [2] | ppCTL response, HCC Distal HCC 4 [2] | ppCTL response, HCC Distal HCC 9 [2] | ppCTL response, HCC Tumor HCC 9 [2] | ppCTL response, HCC Distal HCC 12 [2]
1 (0.25-2.5% reactive CD8^-+ T cells): Reactive CD8^+ T cell population, HH2 (CD8^+ T cells (PBMCs))
2 (2.5-5.0% reactive CD8^-+ T cells): Reactive CD8^+ T cells, pP-specific Expansion, HH6 [2]
0 (<0.25% reactive CD8^-+ T cells): Reactive CD8^+ T cell population, HH3 (CD8^+ T cells (PBMCs)) | Reactive CD8^+ T cell population, HH6 (CD8^+ T cells (PBMCs)) | Reactive CD8^+ T cell population, HH8 (CD8^+ T cells (PBMCs)) | Reactive CD8^+ T cell population, HD1 (CD8^+ T cells (PBMCs)) | Reactive CD8^+ T cell population, HD4 (CD8^+ T cells (PBMCs)) | Reactive CD8^+ T cell population, HD5 (CD8^+ T cells (PBMCs)) | Reactive CD8^+ T cells, Non-specific Expansion, Do2 [1] | Reactive CD8^+ T cells, Non-specific Expansion, Do4 [1] | Reactive CD8^+ T cells, Non-specific Expansion, HH6 [1] | Reactive CD8^+ T cells, pP-specific Expansion, Do2 [2] | Reactive CD8^+ T cells, pP-specific Expansion, Do4 [2] | Reactive CD8^+ T cells, No Expansion, HH6 [3]

SMTRsPPRV: SRSF8 phosphopeptide, HLA-A*0201 (SMTR[pS]PPRV; listed as Homo sapiens)
6 (>20% reactive CD8-+ T cells): ppCTL response, End-stage Liver Cirrhosis IHL 15 [2]
0 (<0.25% reactive CD8-+ T cells): ppCTL response, Deceased Donor Liver Do 3 [2] | ppCTL response, Deceased Donor Liver Do 4 [2] | ppCTL response, Deceased Donor Liver Do 6 [2] | ppCTL response, End-stage Liver Cirrhosis IHL 11 [2] | ppCTL response, End-stage Liver Cirrhosis IHL 12 [2] | ppCTL response, End-stage Liver Cirrhosis IHL 13 [2] | ppCTL response, HCC Distal HCC 1 [2] | ppCTL response, HCC Tumor HCC 1 [2] | ppCTL response, HCC Distal HCC 4 [2] | ppCTL response, HCC Distal HCC 9 [2] | ppCTL response, HCC Tumor HCC 9 [2] | ppCTL response, HCC Distal HCC 12 [2]
1 (0.25-2.5% reactive CD8-+ T cells): ppCTL response, Deceased Donor Liver Do 2 [2]
0 (<0.25% reactive CD8^-+ T cells): Reactive CD8^+ T cell population, HH2 (CD8^+ T cells (PBMCs)) | Reactive CD8^+ T cell population, HH3 (CD8^+ T cells (PBMCs)) | Reactive CD8^+ T cell population, HH6 (CD8^+ T cells (PBMCs)) | Reactive CD8^+ T cell population, HH8 (CD8^+ T cells (PBMCs)) | Reactive CD8^+ T cell population, HH10 (CD8^+ T cells (PBMCs)) | Reactive CD8^+ T cell population, HH11 (CD8^+ T cells (PBMCs)) | Reactive CD8^+ T cell population, HD1 (CD8^+ T cells (PBMCs)) | Reactive CD8^+ T cell population, HD2 (CD8^+ T cells (PBMCs)) | Reactive CD8^+ T cell population, HD3 (CD8^+ T cells (PBMCs)) | Reactive CD8^+ T cell population, HD4 (CD8^+ T cells (PBMCs)) | Reactive CD8^+ T cell population, HD5 (CD8^+ T cells (PBMCs)) | Reactive CD8^+ T cells, Non-specific Expansion, Do2 [1] | Reactive CD8^+ T cells, Non-specific Expansion, Do4 [1] | Reactive CD8^+ T cells, Non-specific Expansion, HH6 [1] | Reactive CD8^+ T cells, pP-specific Expansion, Do2 [2] | Reactive CD8^+ T cells, pP-specific Expansion, Do4 [2] | Reactive CD8^+ T cells, pP-specific Expansion, HH6 [2] | Reactive CD8^+ T cells, No Expansion, HH6 [3]
4 (7.5-10% reactive CD8^-+ T cells): Reactive CD8^+ T cells, No Expansion, Do4 [3]
